Patent US11130724B2, “Compound, resin, composition, resist pattern formation method, and circuit pattern formation method” (Mitsubishi Gas Chemical Company, Inc., priority 2015, dated 2021)

experiment: Solubility test in propylene glycol monomethyl ether (PGME); details: 5% by mass in PGME, 5° C., 30 days
Experimental: A compound was dissolved at 5% by mass in propylene glycol monomethyl ether (PGME) at 23° C. Then, the solution was left to stand still at 5° C. for 30 days.
Evaluation A: No precipitate was visually confirmed.
Evaluation C: Precipitates were visually confirmed.

Solubility (summary in words of Table 7), good:
CC(c1ccc(-c2ccccc2)cc1)(c1c(O)ccc2ccccc12)c1c(O)ccc2ccccc12 [BiN-1]
CC(c1ccc(-c2ccccc2)cc1)(c1c(O)ccc2cc(O)ccc12)c1c(O)ccc2cc(O)ccc12 [BiN-2]
CC(c1ccc(-c2ccccc2)cc1)(c1c(O)ccc2ccc(O)cc12)c1c(O)ccc2ccc(O)cc12 [BiN-3]
CC(c1ccc(C2CCCCC2)cc1)(c1c(O)ccc2cc(O)ccc12)c1c(O)ccc2cc(O)ccc12 [BiN-4]
CC(c1ccc(-c2ccccc2)cc1)(c1ccc(O)c(-c2ccccc2)c1)c1ccc(O)c(-c2ccccc2)c1 [BiP-1]
CC(c1ccc(-c2ccccc2)cc1)(c1cc(-c2ccc(O)cc2)ccc1O)c1cc(-c2ccc(O)cc2)ccc1O [BiP-2]
CC(c1ccc(-c2ccccc2)cc1)(c1ccc(O)c(-c2ccccc2O)c1)c1ccc(O)c(-c2ccccc2O)c1 [BiP-3]
CC(c1ccc(C2CCCCC2)cc1)(c1ccc(O)c(-c2ccccc2O)c1)c1ccc(O)c(-c2ccccc2O)c1 [BiP-4]
CC(c1ccc(O)cc1)(c1ccc(O)cc1)c1ccc(C2CCCCC2)cc1 [P-2]
CC1(c2ccc(-c3ccccc3)cc2)c2ccc(O)cc2Oc2cc(O)ccc21 [P-3]
CC1(c2ccc(C3CCCCC3)cc2)c2ccc(O)cc2Oc2cc(O)ccc21 [P-4]
CC1(c2ccc(-c3ccccc3)cc2)c2c(ccc3cc(O)ccc23)Oc2ccc3cc(O)ccc3c21 [XBiN-1]
CC1(c2ccc(-c3ccccc3)cc2)c2c(ccc3ccc(O)cc23)Oc2ccc3ccc(O)cc3c21 [XBiN-2]
CC1(c2ccc(C3CCCCC3)cc2)c2c(ccc3cc(O)ccc23)Oc2ccc3cc(O)ccc3c21 [XBiN-3]
